Measured values as given in paper PMC9792986, “Synthesis and characterization of semisynthetic analogs of the antifungal occidiofungin” (Frontiers in Microbiology, 2022).
Several values for one entry are separate records, joined by “and”; a condition that tells them apart may be missing. Equal values may be shown once. Starred links: 1 amine or outer side, 2 acyl side, 3 side chain; linkers in the order of their positions; H or OH if unused. Non-standard residues stand in square brackets, D forms with d. Residues, ends and D or L forms follow the SMILES beside them. X3 = O=C([C@@H](N[*:1])C(O)c1ccc(O)cc1)[*:2]; X2 = CCCCCCCCCCCCNCCC(CC(=O)[*:2])N[*:1]; X1 = NC(=O)C(O)[C@H](N[*:1])C(=O)[*:2]; Dab = NCC[C@H](N)C(=O)O

What was measured:
[1] = HPLC percentage of water at elution (polarity); format: physicochemical; conditions: chromatographic, analytical C18 (Agilent ZORBAX ODS, 5 μm, 4.6 × 250 mm); 30-min gradient from 90 to 20% water/ACN, 0.1% TFA; UV 220 nm; used as measure of polarity
Procedure: A two-step procedure of reductive amination was used to introduce a primary or secondary amine onto the aldehyde analog. The first step of reaction involves the formation of an intermediate carbinol amine, which is then dehydrated and protonated to form an iminium ion. Subsequent reduction of this iminium ion with sodium borohydride produces an alkylated amine product. The aldehyde analog of occidiofungin was dissolved in DMSO at a concentration of 10 mg/ml. Three amines (undecylamine, dodecylamine, and DL-dihydrosphingosine) were used for reductive amination. Aldehyde analog (10 μl of DMSO stock solution; 100 μg) was mixed with 10-fold excess of an amino lipid (molar ratio) in 400 μl pure methanol. The sample was then incubated at room temperature for at least 16 h. Solid sodium borohydride (6 mg) was weighted on an analytical balance (Adventurer™ Pro AV114C, Ohaus Corporation, USA) and was directly transferred into the reaction mixture, mixed well, and was incubated at room temperature for 5 min. The reaction mixture was diluted to 1 ml with 50% ACN 0.1% TFA and was separated by HPLC using a 30-min gradient from 90 to 20% water/ACN on the analytical C18 column. HPLC solvents contained 0.1% TFA. Products that eluted between 50% and 30% water were collected and analyzed by electrospray ionization mass spectrometry (ESI-MS) on a ThermoFisher DecaXP ion trap mass spectrometer. The yield of each HPLC sample was quantified by comparing the peak area of each analog to the peak area of a 100 μg standard of occidiofungin. Electrospray ionization mass spectrometry (ESI-MS) experiments were performed using a Thermo Scientific Q Exactive Focus. Sample was loop injected (10 μl) and acetonitrile with 0.1% formic acid was used as a mobile phase at a flow rate of 600 μl/min. The Q Exactive Focus HESI source was operated in full MS in positive mode. The mass resolution was tuned to 70,000 FWHM at m/z 200. The spray voltage was set to 3.5 kV, and the sheath gas and auxiliary gas flow rates were set to 40 and 10 arbitrary units, respectively. The transfer capillary temperature was held at 300°C and the S-Lens RF level was set at 50 v. Exactive Series 2.11 /Xcalibur 4.2.47 software was used for data acquisition and processing. The alkyne occidiofungin (alkyne-OCF) used for fluorescent microscopy was synthesized as previously described ([Ravichandran et al., 2019]).

[2] = system: Saccharomyces cerevisiae DGY6 haploid BY4741; assay: Minimum inhibitory concentration assay; format: cell-based; conditions: for fold of native compound's concentration at which completely inactive: against S. cerevisiae; for MIC: S. cerevisiae DGY6 haploid BY4741, modified CLSI M27-A3, 24 h incubation, duplicate
Procedure: (§1) MIC assays were performed in duplicate following a modified version of the CLSI M27-A3 protocol as previously described ([Ravichandran et al., 2019]).

[3] = system: S. cerevisiae, Candida albicans, and Candida glabrata; assay: MIC comparison with native occidiofungin over the yeasts tested; format: cell-based; conditions: against the Candida species tested and S. cerevisiae strain tested
Procedure: as §1

[4] = system: Saccharomyces cerevisiae cells; assay: Fluorescent microscopy and competitive binding (uptake) assay with alkyne-occidiofungin; format: cell-based; conditions: 5 min pretreatment at 1X MIC of native occidiofungin, then 1X MIC alkyne-OCF 30 min; fluorescence microscopy
Procedure: After 30 min, the cells were fixed then permeabilized. Click reaction was performed with azide-derivatized Alexa Fluor 488 as per the kit-supplied protocol (Click-iT EdU imaging kit; Thermo Fisher Scientific). The cells were suspended in […]® Antifade Mounting Medium and visualized with a Leica DM 6B microscope. […] The cells were then fixed, permeabilized and Click reaction was performed as previously described ([Ravichandran et al., 2019]).

[5] = system: Candida albicans ATCC 3147; assay: Minimum inhibitory concentration assay; format: cell-based; conditions: C. albicans ATCC 3147; modified CLSI M27-A3; 24 h incubation; duplicate
Procedure: as §1

[6] = system: Candida glabrata ATCC 2001; assay: Minimum inhibitory concentration assay; format: cell-based; conditions: C. glabrata ATCC 2001; modified CLSI M27-A3; 24 h incubation; duplicate
Procedure: as §1

[7] = target: T1, F-actin (rabbit skeletal muscle filamentous actin) (Oryctolagus cuniculus, UniProt P68135); parameters: method as in Ravichandran et al., 2019; conditions: co-sedimentation, published previously, ref Ravichandran et al., 2019, cited from earlier work; for Kd: read-out: Kd value for binding to F-actin
T1 construct: Purified rabbit skeletal muscle filamentous actin (AKF99); purchased Cytoskeleton Inc. (Denver, CO) AKF99; host or cells: rabbit skeletal muscle (tissue-purified)

F-actin = assay: Pyrene labeled actin depolymerization assay; format: biochemical; conditions: 5 μM compound; duplicate
Procedure: (§2) Actin polymerization and depolymerization assays were performed using the Actin polymerization biochem kit (# BK003; Cytoskeleton, Inc. Denver, CO) following the manufacturer’s instructions with some modifications. Briefly, for the polymerization assay, G-actin stock solution was made at 0.2 mg/ml instead of 0.4 mg/ml. For the depolymerization assay, F-actin stock solution was diluted nine-fold instead of five-fold. Test compounds including phalloidin, DL-dihydrosphingosine analog, and native occidiofungin were tested at a final concentration of 5 μM. The experiments were done in duplicate.

G-actin = assay: Pyrene labeled actin polymerization assay; format: biochemical; conditions: 5 μM compound; duplicate
Procedure: as §2

Compound	percentage of water for the HPLC retention time [1]	fold of native compound's concentration at which completely inactive [2]	fold of native occidiofungin's inhibitory concentration at which inactive [3]	effect of pretreatment on internalization of alkyne-OCF [4]	MIC [5]	MIC [6]	MIC [2]	Kd [7]	effect on actin depolymerization (in words) (F-actin)	saturation of binding ratio (ligand:actin monomer) [7]	effect on actin polymerization (in words) (G-actin)
CCCCCCCCCCCCNCCC1CC(=O)N[C@@H](CO)C(=O)N[C@@H](C(O)c2ccc(O)cc2)C(=O)N[C@@H](CCN)C(=O)NCC(=O)N[C@@H](CC(N)=O)C(=O)N[C@@H](CO)C(=O)N[C@@H](C(O)C(N)=O)C(=O)N1 (stereo partly drawn) [Dodecylamine] (cyclo([X1][X2]S[X3][Dab]GNS))	47%	64 fold	64 fold	did not interfere with the internalization of the alkyne-OCF							
Undecylamine	50%	64 fold	64 fold		>32 µg/mL	>8 µg/mL	>4 µg/mL				
phalloidin								~8 nM and 8 nM	completely blocked the depolymerization of F-actin		
occidiofungin [Native occidiofungin, reference compound]	48%			prevented internalization of alkyne-OCF	0.5 µg/mL	0.5 µg/mL	0.0625 µg/mL	1050 nM	did not interfere with polymerization or depolymerization	more than 20 molecules of occidiofungin to one actin monomer	did not interfere with polymerization or depolymerization
DL-dihydrosphingosine	33%				16 µg/mL	8 µg/mL	2 µg/mL		did not interfere with polymerization or depolymerization		did not interfere with polymerization or depolymerization
